Results: patent US5866087A, “Calixarene derivatives, their preparation process and their use for extracting actinides and lanthanides” (priority 1995, dated 1999)

Legend:
[1] = supported liquid membrane transport into aqueous reextraction solution; type: physicochemical; conditions: for Percentage transported in 6 h. 237 Np / Percentage transported in 6 h. 239 Pu / Percentage transported in 6 h. 241 Am / Percentage of 239Pu transported in 24 h / Percentage transported in 24 h. 237 Np / Percentage transported in 24 h. 241 Am: supported liquid membrane, 0.001 or 0.0001M calixarene (CMPO 10^-2 M); for Permeability (cm/h) 237 Np / Permeability (cm/h) 239 Pu / Permeability (cm/h) 241 Am: CELGARD 2500 membrane, nitrophenylhexyl ether with 0.001 or 0.0001M calixarene (CMPO 10^-2 M), reextraction 1 mole/l methylene diphosphonic acid
Excerpt: These examples use the second embodiment of the process according to the invention for extracting europium, neptunium, plutonium and americium from aqueous solutions having the same compositions as those used in examples 7 to 16. These examples use the device shown in the attached drawing.
This device comprises an enclosure 1 subdivided into two compartents 3 and 5 by a supported liquid membrane 7, constituted by a microporous polypropylene membrane marketed under the name CELGARD 2500 and having the following characteristics:
membrane thickness: 0.025 mm.
The pores of this membrane are filled with an organic phase constituted by nitrophenylhexyl ether incorporating 0.001 or 0.0001M of calixarene.
Compartment 3 contains 50 ml of aqueous solution (NaNO3 :4 mole/l, HNO3 : 1mole/l with Eu, Np, Pu, Am); and compartment 5 contains 50ml of an aqueous reextraction solution constituted by an aqueous solution with 1 mole/l of methylene diphosphonic acid.
The two solutions are stirred and the initial activity of the solution of compartment 3 is determined, followed by the activity of the aqueous reextraction solution of compartment 5 by liquid α spectrometry and the operation is continued for one day. From it is deduced the percentage of neptunium, plutonium, americium and europium recovered in the aqueous reextraction solution after 6 and 24 h.
The calixarenes used, the permeability (in cm h^-1) of the membrane to Np and Pu, as well as the %, at the end of 6 and 24 h,of Eu, Am, Np and Pu recovered are given in table 3.

[2] = liquid-liquid extraction from aqueous nitric solution, distribution coefficient D; type: physicochemical; conditions: aqueous HNO3, NaNO3 4 mole/l; for D(distribution coefficient) 152-Eu: pH ≈0, 1 hour contacting; for D(distribution coefficient) 237-Np / D(distribution coefficient) 239-Pu / D(distribution coefficient) 241-Am: 1 hour
Experimental: In these examples, an evaluation takes place of the effectiveness of the calixarenes of table 1 for extracting plutonium, neptunium and americium, as well as europium (simulating all the trivalent lanthanides) of an aqueous solution containing one of these elements. The composition of the aqueous solution is as follows:
[…] Contacting takes place in a 20 ml polypropylene tube, which undergoes stirring. After 1 hour of contacting, the two phases are allowed to settle and the activity of each phase is counted by liquid scintillation or α and γ spectrometries.
The distribution coefficient D is then determined and this corresponds to the ratio of the activity of actinide in the organic phase to the activity of actinide in the aqueous phase.

[3] = calixarene 0.001M in nitrophenyloctylether, * = precipitation

| Compound | Percentage transported in 6 h. 237 Np [1] [%] | Percentage transported in 6 h. 239 Pu [1] [%] | Percentage transported in 6 h. 241 Am [1] [%] | Percentage of 239Pu transported in 24 h [1] [%] | Percentage transported in 24 h. 237 Np [1] [%] | Percentage transported in 24 h. 241 Am [1] [%] | Permeability (cm/h) 237 Np [1] [cm/h] | Permeability (cm/h) 239 Pu [1] [cm/h] | Permeability (cm/h) 241 Am [1] [cm/h] | D(distribution coefficient) 152-Eu ([2]; calixarene 0.001M in nitrophenyloctylether) | D(distribution coefficient) 237-Np [2, 3] | D(distribution coefficient) 239-Pu [2, 3] | D(distribution coefficient) 241-Am [2, 3] | D(distribution coefficient) 152-Eu ([2]; calixarene 0.0005M) | D(distribution coefficient) 237-Np ([2]; calixarene 0.0005M) | D(distribution coefficient) 239-Pu ([2]; calixarene 0.0005M) | D(distribution coefficient) 241-Am ([2]; calixarene 0.0005M) |
| --- | --- | --- | --- | --- | --- | --- | --- | --- | --- | --- | --- | --- | --- | --- | --- | --- | --- |
| CCCCCCCCOc1c2cc(NC(=O)CP(=O)(c3ccccc3)c3ccccc3)cc1Cc1cc(NC(=O)CP(=O)(c3ccccc3)c3ccccc3)cc(c1OC)Cc1cc(NC(=O)CP(=O)(c3ccccc3)c3ccccc3)cc(c1OCCCCCCCC)Cc1cc(NC(=O)CP(=O)(c3ccccc3)c3ccccc3)cc(c1OC)C2 [Compound 9] | 52.4 | 84.1 | 91.3 | 86 | 75.2 | 100 | 1.6 | 4.2 | 2.9 | > 100 | 2 | 110 | 280 | – | – | – | – |
| CCCCC(CC)COc1c2cc(NC(=O)CP(=O)(c3ccccc3)c3ccccc3)cc1Cc1cc(NC(=O)CP(=O)(c3ccccc3)c3ccccc3)cc(c1OCC(CC)CCCC)Cc1cc(NC(=O)CP(=O)(c3ccccc3)c3ccccc3)cc(c1OCC(CC)CCCC)Cc1cc(NC(=O)CP(=O)(c3ccccc3)c3ccccc3)cc(c1OCC(CC)CCCC)C2 (centres unmarked) [Compound 10] | 19.8 | 53.5 | 27.8 | 76.6 | 30.4 | 62.4 | 0.6 | 2 | 0.5 | – | – | – | – | 1.5 | 2 | 20 | 4.5 |
